These results are taken from ChEMBL document CHEMBL6153031, “Impact of the hydrophilic-lipophilic balance of free-base and Zn(II) tricationic pyridiniumporphyrins and irradiation wavelength in PDT against the melanoma cell lines” (Eur J Med Chem, 2025).

In general, IC50 refers to the concentration that inhibits the measured activity by half. Usually inhibition stands for the drop in the measured response relative to a control, in per cent.

A short description of data set [1]: Drug uptake in human HDF cells at 1 uM measured per 10^3 cells after 24 hrs by fluorescence based analysis. The class given is ADME, cell-based.
Data set [2] in a line: Cytotoxicity against human HDF cells assessed as reduction in cell viability incubated for 6 hrs followed by irradiation for 30 mins with light at wavelength of 643 nm and measured after 36 to 48 hrs by MTT assay. The class given is toxicity, cell-based.
Data set [3] can be described thus: Drug uptake in nucleus in human HDF cells at 5 uM incubated for 6 hrs by DIOC6(3) dye based fluorescence microscopy. The format is ADME, cell-based.
A short description of data set [4]: Phototoxicity against human A-375 cells assessed as reduction in cell viability incubated for 6 hrs followed by irradiation for 30 mins with light at wavelength of 643 nm and measured after 36 to 48 hrs by MTT assay. The class given is functional, cell-based. Conditions: A-375, light or radiation study. (Tetrazolium assays rely on reduction of a dye to a coloured formazan, in cell work by metabolically active cells.)

The nature of data set [5]: Drug uptake in nucleus in human MeWo cells at 5 uM incubated for 6 hrs by DIOC6(3) dye based fluorescence microscopy. The class given is ADME, cell-based.
Data set [6] is described as follows: Drug uptake in human MeWo cells at 1 uM measured after 6 hrs by fluorescence based analysis. The class given is ADME, cell-based.
Data set [7] is described as follows: Drug uptake in human A-375 cells at 1 uM measured after 6 hrs by fluorescence based analysis. The class given is ADME, cell-based. Conditions: a-375, 6 h; call rule not given here.
Data set [8] is described as follows: Drug uptake in human HDF cells at 1 uM measured after 6 hrs by fluorescence based analysis. The class given is ADME, cell-based.
Data set [9] in a line: Drug uptake in human MeWo cells at 1 uM measured at 37 degC after 6 hrs by fluorescence based analysis. The class given is ADME, cell-based.
Data set [10] is described as follows: Cytotoxicity against human HDF cells assessed as reduction in cell viability incubated for 6 hrs followed by irradiation for 30 mins with light at wavelength of 606 nm and measured after 36 to 48 hrs by MTT assay. The class given is toxicity, cell-based.
Data set [11] in a line: Cytotoxicity against human MeWo cells assessed as reduction in cell viability measured after 36 to 48 hrs by MTT assay. The class given is toxicity, cell-based.
Data set [12] can be described thus: Drug uptake in human HDF cells at 1 uM measured at 37 degC after 6 hrs by fluorescence based analysis. The class given is ADME, cell-based.
A short description of data set [13]: Phototoxicity against human MeWo cells assessed as reduction in cell viability incubated for 6 hrs followed by irradiation for 30 mins with light at wavelength of 643 nm and measured after 36 to 48 hrs by MTT assay. The class given is functional, cell-based. The conditions noted are these: light or radiation study.
Data set [14] in a line: Phototoxicity against human MeWo cells assessed as reduction in cell viability incubated for 6 hrs followed by irradiation for 30 mins with light at wavelength of 606 nm and measured after 36 to 48 hrs by MTT assay. The format is functional, cell-based. Conditions: light or radiation study.
Data set [15] in a line: Cytotoxicity against human HDF cells assessed as reduction in cell viability measured after 36 to 48 hrs by MTT assay. The format is toxicity, cell-based.
Data set [16] in a line: Cytotoxicity against human A-375 cells assessed as reduction in cell viability measured after 36 to 48 hrs by MTT assay. The class given is toxicity, cell-based.
A short description of data set [17]: Drug uptake in cytoplasmic organelles in human HDF cells at 5 uM incubated for 6 hrs by DIOC6(3) dye based fluorescence microscopy. The class given is ADME, cell-based.
A short description of data set [18]: Phototoxicity against human A-375 cells assessed as reduction in cell viability incubated for 6 hrs followed by irradiation for 30 mins with light at wavelength of 606 nm and measured after 36 to 48 hrs by MTT assay. Conditions: A-375, light or radiation study. The class given is functional, cell-based.
Data set [19] is described as follows: Drug uptake in cytoplasmic organelles in human MeWo cells at 5 uM incubated for 6 hrs by DIOC6(3) dye based fluorescence microscopy. The format is ADME, cell-based.
A short description of data set [20]: Drug uptake in human HDF cells at 1 uM measured at 4 degC after 6 hrs by fluorescence based analysis. The class given is ADME, cell-based.
Data set [21] in a line: Drug uptake in human MeWo cells at 1 uM measured at 4 degC after 6 hrs by fluorescence based analysis. The class given is ADME, cell-based.
Data set [22] is described as follows: Phototoxicity against human A-375 cells assessed as cell proliferation rate at 1 uM incubated for 6 hrs followed by irradiation for 30 mins with light at wavelength of 643 nm and measured after 36 to 48 hrs by MTT assay. The format is functional. The conditions noted are these: A-375, light or radiation study, time 2550-3270 min, read-out: Activity.
Data set [23] is described as follows: Phototoxicity against human A-375 cells assessed as cell proliferation rate at 1 uM incubated for 6 hrs followed by irradiation for 30 mins with light at wavelength of 606 nm and measured after 36 to 48 hrs by MTT assay. The class given is functional. The conditions noted are these: A-375, light or radiation study, time 2550-3270 min, read-out: Activity.
The nature of data set [24]: Phototoxicity against human A-375 cells assessed as reduction in cell proliferation at 1 uM incubated for 6 hrs followed by irradiation for 30 mins with light at wavelength of 643 nm and measured after 36 to 48 hrs by MTT assay. The class given is functional. Conditions: A-375, light or radiation study, time 2550-3270 min.
Data set [25] can be described thus: Cytotoxicity against human HDF cells assessed as reduction in cell proliferation at 1 uM incubated for 6 hrs followed by irradiation for 30 mins with light at wavelength of 643 nm and measured after 36 to 48 hrs by MTT assay. The format is toxicity, cell-based. The conditions noted are these: time 2550-3270 min.
A short description of data set [26]: Phototoxicity against human MeWo cells assessed as reduction in cell proliferation at 1 uM incubated for 6 hrs followed by irradiation for 30 mins with light at wavelength of 643 nm and measured after 36 to 48 hrs by MTT assay. The class given is functional. The conditions noted are these: light or radiation study, time 2550-3270 min.

As to `CCCCCCCCCCCCCCCCCC(=O)Nc1ccc(-c2c3nc(c(-c4ccc[n+](C)c4)c4ccc([nH]4)c(-c4ccc[n+](C)c4)c4nc(c(-c5ccc[n+](C)c5)c5ccc2[nH]5)C=C4)C=C3)cc1.[Cl-].[Cl-].[Cl-]`, the Drug uptake in data set [1] is ~ 95 nM; in data set [3], “Not_active”; in data set [5] it was “Not_active”; in data set [6], “Active”; in data set [7], “Active”; in data set [8], “Active”. Further, the Drug uptake result in [9], in data set [12], in [17] and in data set [19] was “Active” each time. For the same compound, the half-inhibitory concentration (IC50) in data set [2] was 0.32 µM; in data set [4] it was 0.09 µM; in [10], 0.67 µM; in [11], > 100 µM; in [13], 0.35 µM; in [14] it was 0.48 µM. In addition, the IC50 in [15] was > 100 µM; in data set [16], > 100 µM; in [18], 0.37 µM.

For `CCCCCCCC(=O)Nc1ccc(-c2c3nc(c(-c4ccc[n+](C)c4)c4ccc([nH]4)c(-c4ccc[n+](C)c4)c4nc(c(-c5ccc[n+](C)c5)c5ccc2[nH]5)C=C4)C=C3)cc1.[Cl-].[Cl-].[Cl-]`, the Drug uptake result in data set [20], in data set [21], in data set [9] and in data set [12] was “Active” each time. Further, the IC50 was 25.7 µM in data set [2]; 2.5 µM in [4]; 32 µM in [10]; > 100 µM in data set [11]; 8.31 µM in [13]; 18.9 µM in data set [14]. Also, the IC50 in data set [15] is > 100 µM; in data set [16] it was > 100 µM; in data set [18] it was 3.22 µM.

Take `CC(=O)Nc1ccc(-c2c3nc(c(-c4ccc[n+](C)c4)c4ccc([nH]4)c(-c4ccc[n+](C)c4)c4nc(c(-c5ccc[n+](C)c5)c5ccc2[nH]5)C=C4)C=C3)cc1.[Cl-].[Cl-].[Cl-]`: the Drug uptake result in data set [20], in data set [21], in [9] and in [12] was “Active” in each case. In addition, the 50% inhibitory concentration (IC50) in data set [2], in data set [4], in [10], in [11], in [13] and in data set [14] was > 100 µM each time. For the same compound, the IC50 in data set [15], in data set [16] and in [18] was > 100 µM in each case.

For `CCCCCCCCCC(=O)Nc1ccc(-c2c3nc(c(-c4ccc[n+](C)c4)c4ccc([nH]4)c(-c4ccc[n+](C)c4)c4nc(c(-c5ccc[n+](C)c5)c5ccc2[nH]5)C=C4)C=C3)cc1.[Cl-].[Cl-].[Cl-]`, the Drug uptake result in data set [20] is on record as “Active”; in data set [3], “Not_active”; in data set [5], “Not_active”; in [21], “Active”; in [9] it was “Active”; in data set [12], “Active”. For the same compound, the Drug uptake result in [17] and in data set [19] was “Active” in each case. Besides, the IC50 in data set [2] is 7.09 µM; in data set [4] it was 0.91 µM; in [10], 32.4 µM; in data set [11], > 100 µM; in data set [13], 7.7 µM; in data set [14], 9.77 µM. In addition, the half-maximal inhibitory concentration (IC50) in [15] is > 100 µM; in data set [16], > 100 µM; in [18], 3.94 µM. The growth at 1 µM in data set [22] was ~30%; in [23], > 80%.

As to `CCCCCCCCCCCC(=O)Nc1ccc(-c2c3nc(c(-c4ccc[n+](C)c4)c4ccc([nH]4)c(-c4ccc[n+](C)c4)c4nc(c(-c5ccc[n+](C)c5)c5ccc2[nH]5)C=C4)C=C3)cc1`, the IC50 in data set [2] was 4.65 µM; in data set [4] it was 0.29 µM; in data set [10], 6.26 µM; in data set [11] it was > 100 µM; in data set [13], 2.36 µM; in [14], 4.27 µM. In addition, the IC50 in data set [15] is > 100 µM; in data set [16], > 100 µM; in data set [18], 0.33 µM. In addition, the inhibition at 1 µM in data set [24] is > 90%; in data set [25], < 20%; in data set [26], 40%.

Take `CCCCCCCCCCCCCCCC(=O)Nc1ccc(-c2c3nc(c(-c4ccc[n+](C)c4)c4ccc([nH]4)c(-c4ccc[n+](C)c4)c4nc(c(-c5ccc[n+](C)c5)c5ccc2[nH]5)C=C4)C=C3)cc1.[Cl-].[Cl-].[Cl-]`: the Drug uptake in [1] was ~ 26 nM; in data set [9], “Active”; in [12], “Active”. The half-maximal inhibitory concentration (IC50) was 0.42 µM in data set [2]; 0.1 µM in [4]; 1.48 µM in [10]; > 100 µM in data set [11]; 0.56 µM in data set [13]; 0.79 µM in data set [14]. The half-maximal inhibitory concentration (IC50) was > 100 µM in data set [15], > 100 µM in [16] and 0.38 µM in [18].
